Measured values: PubChem BioAssay (NCI)
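Step 1: Grow cells in 96-well plates. Step 2: Expose to compound for 48 hours at 5 concentrations. Step 3: Interpolate endpoints linearly; if unreached, use highest concentration. The concentration for 50% growth inhibition is given as GI50. TGI: total growth inhibition.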

Experiments:
Assay in all cases: NCI anticancer screen, dose series, 48 h
[1] = system: 786-0 renal
[2] = system: A498 renal
[3] = system: A549 NSCLC
[4] = system: ACHN renal
[5] = system: BT-549 breast
[6] = system: CAKI-1 renal
[7] = system: CCRF-CEM leukemia
[8] = system: COLO 205 colon
[9] = system: DU-145 prostate
[10] = system: EKVX NSCLC
[11] = system: HCC-2998 colon
[12] = system: HCT-116 colon
[13] = system: HCT-15 colon
[14] = system: HL-60(TB) leukemia
[15] = system: HOP-62 NSCLC
[16] = system: HOP-92 NSCLC
[17] = system: HS 578T breast
[18] = system: HT29 colon
[19] = system: IGROV1 ovarian
[20] = system: K-562 leukemia
[21] = system: KM12 colon
[22] = system: LOX IMVI melanoma
[23] = system: M14 melanoma
[24] = system: MCF7 breast
[25] = system: MDA-MB-231 breast
[26] = system: MDA-MB-435
[27] = system: MOLT-4 leukemia
[28] = system: NCI-H226 lung
[29] = system: NCI-H23 lung
[30] = system: NCI-H460 lung
[31] = system: NCI-H522 lung
[32] = system: NCI/ADR-RES ovarian
[33] = system: OVCAR-3 ovarian
[34] = system: OVCAR-4 ovarian
[35] = system: OVCAR-5 ovarian
[36] = system: OVCAR-8 ovarian
[37] = system: PC-3 prostate
[38] = system: RPMI-8226 leukemia
[39] = system: RXF 393 renal
[40] = system: SF-268 CNS
[41] = system: SF-295 CNS
[42] = system: SF-539 CNS
[43] = system: SK-MEL-2 melanoma
[44] = system: SK-MEL-28 melanoma
[45] = system: SK-MEL-5 melanoma
[46] = system: SK-OV-3 ovarian
[47] = system: SN12C renal
[48] = system: SNB-19 CNS
[49] = system: SNB-75 CNS
[50] = system: SR leukemia
[51] = system: SW-620 colon
[52] = system: T-47D breast
[53] = system: TK-10 renal
[54] = system: U251 CNS
[55] = system: UACC-257 melanoma
[56] = system: UACC-62 melanoma
[57] = system: UO-31 renal

SMILES: CCN(CC)c1ccc(C2=NN(C(C)=O)C(c3cc(OC)c(OC)c(OC)c3)C2)cc1 (stereo unspecified)
- GI50 [1]: 0.491 µM
- TGI [1]: 13.3 µM
- GI50 [2]: 0.344 µM
- TGI [2]: 4.13 µM
- GI50 [3]: 0.89 µM
- TGI [3]: 22.5 µM
- GI50 [4]: 0.563 µM
- TGI [4]: 23 µM
- GI50 [5]: 0.667 µM
- TGI [5]: 7.9 µM
- GI50 [6]: 0.134 µM
- TGI [6]: 21 µM
- GI50 [7]: 0.304 µM
- TGI [7]: 1.42 µM
- GI50 [8]: 0.307 µM
- TGI [8]: 1.16 µM
- GI50 [9]: 0.399 µM
- TGI [9]: 2.28 µM
- GI50 [10]: 0.6 µM
- TGI [10]: 11 µM
- GI50 [11]: 1.05 µM
- TGI [11]: 8.04 µM
- GI50 [12]: 0.349 µM
- TGI [12]: 13 µM
- GI50 [13]: 0.441 µM
- TGI [13]: 12.1 µM
- GI50 [14]: 0.209 µM
- TGI [14]: 0.541 µM
- GI50 [15]: 3.96 µM
- TGI [15]: 24.2 µM
- GI50 [16]: 1.82 µM
- TGI [16]: 20.3 µM
- GI50 [17]: 0.348 µM
- TGI [17]: 26.6 µM
- GI50 [18]: 0.354 µM
- TGI [18]: 1.68 µM
- GI50 [19]: 0.769 µM
- TGI [19]: 33.6 µM
- GI50 [20]: 0.689 µM
- TGI [20]: > 100 µM
- GI50 [21]: 0.349 µM
- TGI [21]: 12.1 µM
- GI50 [22]: 0.568 µM
- TGI [22]: 16 µM
- GI50 [23]: 0.418 µM
- TGI [23]: 6.07 µM
- GI50 [24]: 0.317 µM
- TGI [24]: 11.4 µM
- GI50 [25]: 1.24 µM
- TGI [25]: 6.9 µM
- GI50 [26]: 0.166 µM
- TGI [26]: 0.363 µM
- GI50 [27]: 0.341 µM
- TGI [27]: 3.57 µM
- GI50 [28]: 1.74 µM
- TGI [28]: 11.8 µM
- GI50 [29]: 0.87 µM
- TGI [29]: 17.4 µM
- GI50 [30]: 0.371 µM
- TGI [30]: 4.71 µM
- GI50 [31]: 0.307 µM
- TGI [31]: 2.84 µM
- GI50 [32]: 0.247 µM
- TGI [32]: 0.81 µM
- GI50 [33]: 0.36 µM
- TGI [33]: 11 µM
- GI50 [34]: 0.583 µM
- TGI [34]: 29.2 µM
- GI50 [35]: 1.45 µM
- TGI [35]: 15.3 µM
- GI50 [36]: 0.795 µM
- TGI [36]: 11.9 µM
- GI50 [37]: 0.339 µM
- TGI [37]: 12.2 µM
- GI50 [38]: 0.18 µM
- TGI [38]: 0.579 µM
- GI50 [39]: 0.38 µM
- TGI [39]: 2.43 µM
- GI50 [40]: 0.867 µM
- TGI [40]: 20.9 µM
- GI50 [41]: 0.258 µM
- TGI [41]: 1.46 µM
- GI50 [42]: 0.283 µM
- TGI [42]: 1.16 µM
- GI50 [43]: 2.37 µM
- TGI [43]: 26.1 µM
- GI50 [44]: 0.819 µM
- TGI [44]: 19.1 µM
- GI50 [45]: 0.378 µM
- TGI [45]: 5.05 µM
- GI50 [46]: 0.41 µM
- TGI [46]: 10.6 µM
- GI50 [47]: 1.15 µM
- TGI [47]: 16.2 µM
- GI50 [48]: 0.476 µM
- TGI [48]: 13.3 µM
- GI50 [49]: 0.233 µM
- TGI [49]: 3.59 µM
- GI50 [50]: 0.0708 µM
- TGI [50]: 0.685 µM
- GI50 [51]: 0.368 µM
- TGI [51]: 14.4 µM
- GI50 [52]: 0.511 µM
- TGI [52]: 22.6 µM
- GI50 [53]: 0.549 µM
- TGI [53]: 17 µM
- GI50 [54]: 0.406 µM
- TGI [54]: 11.5 µM
- GI50 [55]: 16 µM
- TGI [55]: 39.8 µM
- GI50 [56]: 0.308 µM
- TGI [56]: 13.6 µM
- GI50 [57]: 1.13 µM
- TGI [57]: 21 µM

SMILES: C=C1C(=O)OC2C1C(=O)C/C(C)=C/CCC1(C)OC21 (stereo unspecified)
- TGI [1]: 31.8 µM
- TGI [2]: 49.6 µM
- TGI [3]: 37.8 µM
- TGI [4]: 22.2 µM
- TGI [5]: 54.6 µM
- TGI [6]: 28.6 µM
- TGI [7]: > 100 µM
- TGI [8]: 18 µM
- TGI [9]: 32.1 µM
- TGI [10]: 61.2 µM
- TGI [11]: 35.3 µM
- TGI [12]: 33.5 µM
- TGI [13]: 28.6 µM
- TGI [14]: 7.23 µM
- TGI [15]: 28 µM
- TGI [16]: 41.7 µM
- TGI [17]: > 100 µM
- TGI [18]: 43.2 µM
- TGI [19]: 44.9 µM
- TGI [20]: 74 µM
- TGI [21]: 53.3 µM
- TGI [22]: 36.7 µM
- TGI [23]: 31.7 µM
- TGI [24]: 29.2 µM
- TGI [25]: 38.3 µM
- TGI [26]: 31.1 µM
- TGI [27]: 47 µM
- TGI [28]: 39.2 µM
- TGI [29]: 38.8 µM
- TGI [30]: 39.7 µM
- TGI [31]: 12 µM
- TGI [32]: 99.4 µM
- TGI [33]: 31.8 µM
- TGI [34]: 46 µM
- TGI [35]: 33 µM
- TGI [36]: 56.2 µM
- TGI [37]: 33.3 µM
- TGI [38]: 31.7 µM
- TGI [39]: 31.9 µM
- TGI [40]: 50.8 µM
- TGI [41]: > 100 µM
- TGI [42]: 29.3 µM
- TGI [43]: 35.8 µM
- TGI [44]: 31.6 µM
- TGI [45]: 34.5 µM
- TGI [46]: > 100 µM
- TGI [47]: 42.6 µM
- TGI [48]: > 100 µM
- TGI [49]: 46.7 µM
- TGI [50]: > 100 µM
- TGI [51]: 40.8 µM
- TGI [52]: 32.2 µM
- TGI [53]: 30.8 µM
- TGI [54]: 37.7 µM
- TGI [55]: 41.3 µM
- TGI [56]: 66.8 µM
- TGI [57]: 28.4 µM
